Source: US8450313B2, “2,3-diaryl- or heteroaryl-substituted 1,1,1-trifluoro-2-hydroxypropyl compounds” (Hoffmann-La Roche Inc., priority 2009, dated 2013)

Target: T1, full length human recombinant glucocorticoid receptor (Homo sapiens, UniProt P04150)
T1 construct: It contains some partially purified full length human recombinant glucocorticoid receptor; purchased Panvera/Invitrogen PV4302
T1 sequence (P04150 1-777): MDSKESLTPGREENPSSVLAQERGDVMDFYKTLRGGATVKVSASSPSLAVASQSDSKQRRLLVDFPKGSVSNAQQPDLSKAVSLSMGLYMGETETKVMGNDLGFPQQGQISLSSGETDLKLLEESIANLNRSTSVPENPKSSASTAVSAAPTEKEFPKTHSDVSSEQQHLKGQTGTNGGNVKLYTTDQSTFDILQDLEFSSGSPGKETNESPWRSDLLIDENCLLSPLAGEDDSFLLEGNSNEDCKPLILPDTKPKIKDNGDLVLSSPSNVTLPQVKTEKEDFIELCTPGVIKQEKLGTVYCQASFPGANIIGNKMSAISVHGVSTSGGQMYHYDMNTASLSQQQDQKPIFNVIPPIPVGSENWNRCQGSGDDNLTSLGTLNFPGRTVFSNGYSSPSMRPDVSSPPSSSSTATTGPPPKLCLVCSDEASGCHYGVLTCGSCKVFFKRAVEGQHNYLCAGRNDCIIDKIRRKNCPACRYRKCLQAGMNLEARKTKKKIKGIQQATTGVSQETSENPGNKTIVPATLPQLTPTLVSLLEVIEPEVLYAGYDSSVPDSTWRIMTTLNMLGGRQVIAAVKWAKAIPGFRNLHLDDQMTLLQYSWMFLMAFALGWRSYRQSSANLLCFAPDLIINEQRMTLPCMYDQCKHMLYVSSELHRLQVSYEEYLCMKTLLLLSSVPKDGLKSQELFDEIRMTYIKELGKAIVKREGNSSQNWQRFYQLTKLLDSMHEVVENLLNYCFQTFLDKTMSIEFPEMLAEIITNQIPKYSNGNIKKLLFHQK
Assay: Glucocorticoid Receptor Binding Assay (Glucocorticoid Receptor Competitor Assay far red kit, fluorescence polarization)
Conditions: competition with fluorescent GR ligand Fluormone GS Far Red, 3 hours at 22° C., pH 7.4; Ki calculated from IC50 by Cheng-Prusoff
Protocol: Glucocorticoid Receptor Binding Assay
The ability of the substances to bind to the glucocorticoid receptor was determined with the help of a commercial Glucocorticoid Receptor Competitor Assay far red kit provided by Panvera/Invitrogen (PV4302). This kit is used as provided by the supplier. It contains some partially purified full length human recombinant glucocorticoid receptor, a coactivator related GR stabilizing peptide, a tight-binding fluorescent GR ligand Fluormone™ GS Far Red as labeled tracer and a screening buffer. All reagents are prepared and the assay is run according to the recommendations of the kit manufacturer.
Briefly, the GR stabilizing peptide and the human recombinant glucocorticoid receptor are both diluted with the screening buffer (pH 7.4) and are gently mixed (no vortexing) just before the assay and kept on ice until use. The fluorescent-labeled ligand is also diluted with the screening buffer just before the assay and kept on ice until use. The substances to test are pre-diluted in pure DMSO then some water is added to get an intermediate 4.2% DMSO stock solution. Ten microliter of the intermediate stock solution is gently mixed with 5 μA of diluted fluorescent-labeled ligand and 5 μl of diluted human recombinant glucocorticoid receptor in a 384-well plate (low volume, ultraclear, glass plate from Greiner ref 788896). The plate is centrifuged, sealed and incubated for 3 hours at 22° C. in the dark. The polarized fluorescence is measured with a Zeiss-HTS reader or any equivalent equipment (610-660 nm).
All compounds were tested to determine IC50 in a serial dilution experiment. The concentration at which 50% inhibition of the fluorescent GR ligand Fluormone™ GS Far Red is obtained (the IC50) is determined after fitting with a sigmoidal dose-response model of a plot of the logarithm of the concentration versus percent inhibition measured for the different concentrations. Ki's were calculated from IC50 based on Cheng-Prusoff equation (Cheng, Y, Prusoff, W H (1973) Biochem Pharmacol 22, 3099-3108): Ki=IC50/[1+D/Kd] wherein D is the concentration of the fluorescent ligand and Kd is the binding constant for the fluorescent ligand binding to the receptor under the conditions used in the competition experiment.

## C[C@H](c1ccc(-c2ccc(C(=O)O)c(F)c2)cc1Cl)[C@@](O)(c1ccc2oc(=O)n(C)c2c1)C(F)(F)F (racemic) [Example 118, 3′-Chloro-3-fluoro-4′-[3,3,3-trifluoro-2-hydroxy-1-methyl-2-(3-methyl-2-oxo-2,3-dihydro-benzooxazol-5-yl)-propyl]-biphenyl-4-carboxylic acid]
  Ki: 1 nM

## COC(=O)c1ccc(-c2ccc([C@@H](C)[C@@](O)(c3ccc4oc(=O)n(C)c4c3)C(F)(F)F)c(Cl)c2)cc1Cl (relative stereo) [Example 123, 3,3′-Dichloro-4′-[3,3,3-trifluoro-2-hydroxy-1-methyl-2-(3-methyl-2-oxo-2,3-dihydro-benzooxazol-5-yl)-propyl]-biphenyl-4-carboxylic acid methyl ester]
  Ki: 1.1 nM

## C[C@H](c1ccc(Oc2ccc(C(=O)O)c(F)c2)cc1Cl)[C@@](O)(c1ccc2oc(=O)n(C)c2c1)C(F)(F)F (stereo in doubt) [Example 177, 4-{3-Chloro-4-[3,3,3-trifluoro-2-hydroxy-1-methyl-2-(3-methyl-2-oxo-2,3-dihydro-benzooxazol-5-yl)-propyl]-phenoxy}-2-fluoro-benzoic acid]
  Ki: 1.3 nM

## C[C@H](c1ccc(Oc2ccc(C(=O)O)c(Cl)c2)cc1Cl)[C@@](O)(c1ccc2oc(=O)n(C)c2c1)C(F)(F)F (relative stereo) [Example 173, 2-Chloro-4-{3-chloro-4-[3,3,3-trifluoro-2-hydroxy-1-methyl-2-(3-methyl-2-oxo-2,3-dihydro-benzooxazol-5-yl)-propyl]-phenoxy}-benzoic acid]
  Ki: 1.1 nM

## C[C@H](c1ccc(Oc2ncc(C(=O)O)cc2Cl)cc1Cl)[C@@](O)(c1ccc2oc(=O)n(C)c2c1)C(F)(F)F (stereo in doubt) [Example 180, 5-Chloro-6-{3-chloro-4-[3,3,3-trifluoro-2-hydroxy-1-methyl-2-(3-methyl-2-oxo-2,3-dihydro-benzooxazol-5-yl)-propyl]-phenoxy}-nicotinic acid]
  Ki: 1 nM

## C[C@H](c1ccc(-c2ccc(C(=O)O)c(F)c2)cc1Cl)[C@@](O)(c1ccc2[nH]c(=O)[nH]c2c1)C(F)(F)F (relative stereo) [Example 114, 3′-Chloro-3-fluoro-4′-[3,3,3-trifluoro-2-hydroxy-1-methyl-2-(2-oxo-2,3-dihydro-1H-benzoimidazol-5-yl)-propyl]-biphenyl-4-carboxylic acid]
  Ki: 354 nM

## CCOC(=O)c1cc(-c2ccc([C@H](C)[C@](O)(c3ccc4oc(=O)n(C)c4c3)C(F)(F)F)c(Cl)c2)ccc1F (relative stereo) [Example 121, 3′-Chloro-4-fluoro-4′-[3,3,3-trifluoro-2-hydroxy-1-methyl-2-(3-methyl-2-oxo-2,3-dihydro-benzooxazol-5-yl)-propyl]-biphenyl-3-carboxylic acid ethyl ester]
  Ki: 1.6 nM

## CCOC(=O)COc1ccc(Cl)c([C@H](C)[C@](O)(c2ccc3c(c2)N(C)C(=O)CO3)C(F)(F)F)c1 (stereo in doubt) [Example 3, {4-Chloro-3-[3,3,3-trifluoro-2-hydroxy-1-methyl-2-(4-methyl-3-oxo-3,4-dihydro-2H-benzo[1,4]oxazin-6-yl)-propyl]-phenoxy}-acetic acid ethyl ester]
  Ki: 9.2 nM

## C[C@@H](c1ccc(-c2ccc(F)c(OCC(=O)O)c2)cc1Cl)[C@](O)(c1cc(F)c2c(c1)N(C)C(=O)CO2)C(F)(F)F (stereo in doubt) [Example 48, {3′-Chloro-4-fluoro-4′-[3,3,3-trifluoro-2-(8-fluoro-4-methyl-3-oxo-3,4-dihydro-2H-benzo[1,4]oxazin-6-yl)-2-hydroxy-1-methyl-propyl]-biphenyl-3-yloxy}-acetic acid]
  Ki: 1.3 nM

## C[C@@H](c1ccc(Oc2ccc(C(=O)O)c(Cl)c2)cc1Cl)[C@](O)(c1cc2c(cc1F)OCC(=O)N2C)C(F)(F)F (stereo in doubt) [Example 139, 2-Chloro-4-{3-chloro-4-[3,3,3-trifluoro-2-(7-fluoro-4-methyl-3-oxo-3,4-dihydro-2H-benzo[1,4]oxazin-6-yl)-2-hydroxy-1-methyl-propyl]-phenoxy}-benzoic acid]
  Ki: 2.7 nM

## Cc1cc([C@@](O)([C@@H](C)c2ccc(Oc3cc(C(F)(F)F)c(C(=O)O)cn3)cc2Cl)C(F)(F)F)cc(C)c1C#N (stereo in doubt) [Example 146, 6-{3-Chloro-4-[2-(4-cyano-3,5-dimethyl-phenyl)-3,3,3-trifluoro-2-hydroxy-1-methyl-propyl]-phenoxy}-4-trifluoromethyl-nicotinic acid]
  Ki: 1.4 nM

## C[C@H](c1ccc(-c2ccc(CC(=O)O)cc2)cc1Cl)[C@@](O)(c1ccc2c(c1)n(C)c(=O)n2C)C(F)(F)F (stereo in doubt) [Example 82, {3′-Chloro-4′-[2-(1,3-dimethyl-2-oxo-2,3-dihydro-1H-benzoimidazol-5-yl)-3,3,3-trifluoro-2-hydroxy-1-methyl-propyl]-biphenyl-4-yl}-acetic acid]
  Ki: 7 nM

## C[C@@H](c1ccc(C(=O)O)cc1Cl)[C@](O)(c1ccc2c(c1)N(C)C(=O)CO2)C(F)(F)F (relative stereo) [Example 43, 3-Chloro-4-[3,3,3-trifluoro-2-hydroxy-1-methyl-2-(4-methyl-3-oxo-3,4-dihydro-2H-benzo[1,4]oxazin-6-yl)-propyl]-benzoic acid]
  Ki: 261 nM

## CCOC(=O)c1cc(-c2ccc([C@H](C)[C@](O)(c3ccc4c(c3)N(C)C(=O)CO4)C(F)(F)F)c(Cl)c2)ccc1Cl (relative stereo) [Example 39, 4,3′-Dichloro-4′-[3,3,3-trifluoro-2-hydroxy-1-methyl-2-(4-methyl-3-oxo-3,4-dihydro-2H-benzo[1,4]oxazin-6-yl)-propyl]-biphenyl-3-carboxylic acid ethyl ester]
  Ki: 0.7 nM

## CCOC(=O)C(C)(C)Oc1ccc([C@@H](C)[C@@](O)(c2ccc3c(c2)N(C)C(=O)CO3)C(F)(F)F)c(Cl)c1 (racemic) [Example 206, 2-{3-Chloro-4-[3,3,3-trifluoro-2-hydroxy-1-methyl-2-(4-methyl-3-oxo-3,4-dihydro-2H-benzo[1,4]oxazin-6-yl)-propyl]-phenoxy}-2-methyl-propionic acid ethyl ester]
  Ki: 6.2 nM

## COC(=O)c1ccc(Oc2ccc(Cl)c([C@H](C)[C@](O)(c3ccc4c(c3)N(C)C(=O)CO4)C(F)(F)F)c2)cc1Cl (relative stereo) [Example 9, 2-Chloro-4-{4-chloro-3-[3,3,3-trifluoro-2-hydroxy-1-methyl-2-(4-methyl-3-oxo-3,4-dihydro-2H-benzo[1,4]oxazin-6-yl)-propyl]-phenoxy}-benzoic acid methyl ester]
  Ki: 8.9 nM

## COC(=O)c1ccc(-c2ccc([C@@H](C)[C@@](O)(c3cnc4c(c3)N(C)C(=O)CO4)C(F)(F)F)c(Cl)c2)cc1F (stereo in doubt) [Example 51, 3′-Chloro-3-fluoro-4′-[3,3,3-trifluoro-2-hydroxy-1-methyl-2-(1-methyl-2-oxo-2,3-dihydro-1H-pyrido[2,3-b][1,4]oxazin-7-yl)-propyl]-biphenyl-4-carboxylic acid methyl ester]
  Ki: 20.8 nM

## C[C@H](c1ccc(-c2ccc(C(=O)O)c(F)c2)cc1Cl)[C@@](O)(c1cccc(C#N)c1)C(F)(F)F (relative stereo) [Example 153, 3′-Chloro-4′-[2-(3-cyano-phenyl)-3,3,3-trifluoro-2-hydroxy-1-methyl-propyl]-3-fluoro-biphenyl-4-carboxylic acid]
  Ki: 23.2 nM
